± gives the expanded uncertainty stated by the source.
Key:
[1] = refractive index (Na D-line) (dimensionless)

CCCCCCCCCCn1cc[n+](C)c1.[Cl-] [1-decyl-3-methylimidazolium chloride]
[1], 100 kPa, Liquid, Standard Abbe refractometry
Conditions | refractive index
293.15 K | 1.5002 ± 0.0048
298.15 K | 1.4988 ± 0.0054
303.15 K | 1.4972 ± 0.0058
313.15 K | 1.4937 ± 0.0064
323.15 K | 1.4897 ± 0.0064
333.15 K | 1.4864 ± 0.0068
343.15 K | 1.4834 ± 0.0074
353.15 K | 1.4806 ± 0.0078
363.15 K | 1.4788 ± 0.009

Liquid
Conditions | mass density [kg/m3] | viscosity [mPa·s]
298.15 K, 101 kPa, Vibrating tube method | 984 ± 20 | –
303.15 K, 101 kPa, Vibrating tube method | 979.7 ± 20 | –
313.15 K, 100 kPa, Concentric cylinders viscometry | – | 3716 ± 630
313.15 K, 101 kPa, Vibrating tube method | 974.4 ± 20 | –
323.15 K, 100 kPa, Concentric cylinders viscometry | – | 1613 ± 270
323.15 K, 101 kPa, Vibrating tube method | 968.1 ± 20 | –
333.15 K, 100 kPa, Concentric cylinders viscometry | – | 778.9 ± 130
333.15 K, 101 kPa, Vibrating tube method | 962.4 ± 20 | –
343.15 K, 100 kPa, Concentric cylinders viscometry | – | 411.2 ± 67
343.15 K, 101 kPa, Vibrating tube method | 956.4 ± 20 | –
353.15 K, 100 kPa, Concentric cylinders viscometry | – | 233.7 ± 38
353.15 K, 101 kPa, Vibrating tube method | 950.7 ± 20 | –
363.15 K, 100 kPa, Concentric cylinders viscometry | – | 141.7 ± 23
363.15 K, 101 kPa, Vibrating tube method | 943.8 ± 20 | –

Liquid, Ring tensiometer
Conditions | surface tension liquid-gas [mN/m]
303.15 K | 34 ± 0.9
313.15 K | 30.2 ± 0.9
323.15 K | 28.4 ± 0.9
333.15 K | 27.8 ± 0.9
343.15 K | 27 ± 0.9
353.15 K | 26.2 ± 0.9
363.15 K | 25.5 ± 0.9

Conditions | Normal melting temperature [°C]
Crystal, DTA | 28.96 ± 1.1

CCCCCCCCCCn1cc[n+](C)c1.O=S(=O)([N-]S(=O)(=O)C(F)(F)F)C(F)(F)F
[1], 101 kPa, Liquid, Standard Abbe refractometry
Conditions | refractive index
293.15 K | 1.4366 ± 0.004
298.15 K | 1.4351 ± 0.004
303.15 K | 1.4336 ± 0.004
313.15 K | 1.4306 ± 0.004
323.15 K | 1.4278 ± 0.004
333.15 K | 1.425 ± 0.004
343.15 K | 1.4222 ± 0.004
353.15 K | 1.4194 ± 0.004
363.15 K | 1.4166 ± 0.004

101 kPa, Liquid
Conditions | mass density, Vibrating tube method [kg/m3] | viscosity, Concentric cylinders viscometry [mPa·s]
273.15 K | 1292.7 ± 20 | –
289.15 K | 1287.3 ± 20 | –
293.15 K | 1282.3 ± 20 | 139.9 ± 22
298.15 K | 1278.4 ± 20 | 101.2 ± 16
303.15 K | 1274.2 ± 20 | 79.17 ± 13
313.15 K | 1265.3 ± 20 | 50.86 ± 8.1
323.15 K | 1256.3 ± 20 | 34.51 ± 5.5
333.15 K | 1247.5 ± 20 | 24.5 ± 3.9
343.15 K | 1239.4 ± 20 | 18.08 ± 2.9
353.15 K | 1230.6 ± 20 | 13.78 ± 2.2
363.15 K | 1222.3 ± 20 | 10.79 ± 1.7

Liquid, Ring tensiometer
Conditions | surface tension liquid-gas [mN/m]
298.15 K | 29.8 ± 0.9
303.15 K | 29.2 ± 0.9
313.15 K | 28.3 ± 0.9
323.15 K | 27.5 ± 0.9
333.15 K | 26.9 ± 0.9
343.15 K | 26.3 ± 0.9
353.15 K | 25.7 ± 0.9
363.15 K | 25.2 ± 0.9

Conditions | Normal melting temperature [°C]
Crystal, DTA | 3.04 ± 1.1

CCCCCCCCCCCC[n+]1ccn(C)c1.[Cl-] [1-dodecyl-3-methylimidazolium chloride]
Conditions | Normal melting temperature [°C]
Crystal, DTA | 96.22 ± 1.1

CCCCCCCCCCCCn1cc[n+](C)c1.O=S(=O)([N-]S(=O)(=O)C(F)(F)F)C(F)(F)F
[1], 101 kPa, Liquid, Standard Abbe refractometry
Conditions | refractive index
293.15 K | 1.4385 ± 0.004
298.15 K | 1.437 ± 0.004
303.15 K | 1.4354 ± 0.004
313.15 K | 1.4324 ± 0.004
323.15 K | 1.4295 ± 0.004
333.15 K | 1.4265 ± 0.004
343.15 K | 1.4237 ± 0.004
353.15 K | 1.4209 ± 0.004
363.15 K | 1.4179 ± 0.004

101 kPa, Liquid
Conditions | mass density, Vibrating tube method [kg/m3] | viscosity, Concentric cylinders viscometry [mPa·s]
293.15 K | 1253.1 ± 20 | –
298.15 K | 1248 ± 20 | 130.5 ± 21
303.15 K | 1242 ± 20 | 101.1 ± 16
313.15 K | 1232.2 ± 20 | 63.54 ± 10
323.15 K | 1224.1 ± 20 | 42.41 ± 6.8
333.15 K | 1216 ± 20 | 29.67 ± 4.8
343.15 K | 1208.1 ± 20 | 21.63 ± 3.5
353.15 K | 1200 ± 20 | 16.31 ± 2.6
363.15 K | 1191.8 ± 20 | 12.65 ± 2

Liquid, Ring tensiometer
Conditions | surface tension liquid-gas [mN/m]
298.15 K | 28.1 ± 0.9
303.15 K | 27.7 ± 0.9
313.15 K | 26.9 ± 0.9
323.15 K | 25.9 ± 0.9
333.15 K | 24.9 ± 0.9
343.15 K | 24.1 ± 0.9
353.15 K | 23.3 ± 0.9
363.15 K | 22.5 ± 0.9

Conditions | Normal melting temperature [°C]
Crystal, DTA | 22.50 ± 1.1

CCCCCCCCCCCCCCn1cc[n+](C)c1.O=S(=O)([N-]S(=O)(=O)C(F)(F)F)C(F)(F)F
refractive index, [1], 101 kPa
Conditions | 303.15 K | 313.15 K | 323.15 K | 333.15 K | 343.15 K | 353.15 K | 363.15 K
Metastable liquid, Standard Abbe refractometry | 1.4384 ± 0.004 | – | – | – | – | – | –
Standard Abbe refractometry, Liquid | – | 1.4352 ± 0.004 | 1.4322 ± 0.004 | 1.4292 ± 0.004 | 1.4262 ± 0.004 | 1.4233 ± 0.004 | 1.4204 ± 0.004

101 kPa, Liquid
Conditions | mass density, Vibrating tube method [kg/m3] | viscosity, Concentric cylinders viscometry [mPa·s]
303.15 K | 1197.1 ± 20 | –
313.15 K | 1187.6 ± 20 | 83.54 ± 13
323.15 K | 1180 ± 20 | 54.36 ± 8.7
333.15 K | 1171.3 ± 20 | 37.21 ± 6
343.15 K | 1163.1 ± 20 | 26.58 ± 4.3
353.15 K | 1154.6 ± 20 | 19.68 ± 3.1
363.15 K | 1146.5 ± 20 | 15.04 ± 2.4

surface tension liquid-gas [mN/m]
Conditions | 303.15 K | 313.15 K | 323.15 K | 333.15 K | 343.15 K | 353.15 K | 363.15 K
Metastable liquid, Ring tensiometer | 26.3 ± 0.9 | – | – | – | – | – | –
Ring tensiometer, Liquid | – | 25.3 ± 0.9 | 24.5 ± 0.9 | 23.7 ± 0.9 | 22.9 ± 0.9 | 22.3 ± 0.9 | 21.7 ± 0.9

Conditions | Normal melting temperature [°C]
Crystal, DTA | 34.4 ± 1.1

— the NIST ThermoML archive (doi:10.1021/acs.jced.7b00242)
